From patent US6026817A, “Method of treating the syndrome of coronary heart disease risk factors in humans” (priority 1998, dated 2000)
“And” between values parts separate entries of the source, which are not always exact repeats. Equal values may be shown once.

What was measured:
[1] = test system: μ, δ, and κ opiate receptors; assay: Ratios of IC50 between opiate receptors; type: binding
Excerpt: (§1) For each receptor there is a prototype ligand. […] For the μ receptor the prototype ligand is DHM (dihydromorphine). For the δ receptor, the prototype ligand is DADLE (D-Ala+D-Leu-Enkephalin), and for the κ receptor, the prototype ligand is EKC (ethylketocyclazocine).
The relationship between the IC50 levels f or the μ, δ, κ opiate receptors may also be expressed in terms of a ratio.

δ opioid receptor = δ opioid receptor (Homo sapiens, UniProt P41143); assay: Receptor binding, displacement of prototype ligand DADLE
Excerpt: as §1

[2] = test system: insulin resistant subject one; assay: Example II: CHMMO given to an insulin resistant subject, blood values and liver enzymes; type: in vivo, human
Protocol: A insulin resistant subject was given 17-cyclopropylmethyl-3-hydroxy-14-methoxy-8β-methylmorphinan-6-one hydrochloride (CEMMO), a pure opioid antagonist, in two daily doses of 18 mg each for the duration of one week, followed by 9 mg b.i.d. for another 4 weeks.

κ opioid receptor = κ opioid receptor (Homo sapiens, UniProt P41145); assay: biochemical; type: binding; details: prototype ligand EKC
Excerpt: as §1

μ opioid receptor = μ opioid receptor (Homo sapiens, UniProt P35372); assay: biochemical; type: binding; details: prototype ligand DHM
Excerpt: as §1

[3] = test system: subject one with Impaired Glucose Tolerance and borderline Type 2 Diabetes; assay: Example III: Nalmefene given to a subject with Impaired Glucose Tolerance, blood values, enzymes, weight, blood pressure; type: in vivo, human; set-up: HgbA1c Δ% (reduction) / C-Peptide Δ% (reduction) / Chol. Total Δ% (reduction) / LDL-C. Δ% (reduction) / TG Δ% (reduction) / FFA Δ% (reduction): concentration or dose not given beside the values
[4] = test system: women with polycystic ovary syndrome with Acanthosis Nigrians; details: four women, period of a few days; cited from earlier work
body weight = details: in vivo; cited from earlier work
[5] = Day 41 vs Day 1 (after 5 weeks)
[6] = Day 41 vs Day 1 (after 5 weeks), hydrochloride
[7] = Day 41 vs Day 1 (after 5 weeks), listed as CEMMO, hydrochloride
[8] = day 41 (after 5 weeks), 18 mg b.i.d. one week, then 9 mg b.i.d.
[9] = day 41, 18 mg b.i.d. one week, then 9 mg b.i.d.

Chain of δ opioid receptor (P41143 whole entry): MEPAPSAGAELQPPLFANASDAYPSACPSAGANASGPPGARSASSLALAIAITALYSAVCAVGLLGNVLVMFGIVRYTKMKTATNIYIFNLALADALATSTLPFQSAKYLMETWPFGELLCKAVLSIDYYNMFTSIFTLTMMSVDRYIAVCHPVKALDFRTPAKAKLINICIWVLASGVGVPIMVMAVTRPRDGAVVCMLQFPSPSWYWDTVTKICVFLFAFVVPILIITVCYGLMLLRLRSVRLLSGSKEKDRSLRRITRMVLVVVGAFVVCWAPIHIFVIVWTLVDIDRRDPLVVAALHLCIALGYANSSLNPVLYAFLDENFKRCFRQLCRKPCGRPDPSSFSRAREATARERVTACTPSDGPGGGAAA
Chain of μ opioid receptor (P35372 whole entry): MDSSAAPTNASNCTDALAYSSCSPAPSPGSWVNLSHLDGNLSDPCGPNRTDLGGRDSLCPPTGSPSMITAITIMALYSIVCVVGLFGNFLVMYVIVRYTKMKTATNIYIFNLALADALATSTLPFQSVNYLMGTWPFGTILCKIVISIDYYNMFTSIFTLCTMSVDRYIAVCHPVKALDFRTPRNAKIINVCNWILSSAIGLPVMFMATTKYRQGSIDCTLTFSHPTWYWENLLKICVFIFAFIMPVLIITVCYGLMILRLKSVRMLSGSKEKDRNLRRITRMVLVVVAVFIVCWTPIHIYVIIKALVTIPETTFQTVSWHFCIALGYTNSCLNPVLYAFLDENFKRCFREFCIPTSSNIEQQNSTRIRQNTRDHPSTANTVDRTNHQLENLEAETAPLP
Chain of κ opioid receptor (P41145 whole entry): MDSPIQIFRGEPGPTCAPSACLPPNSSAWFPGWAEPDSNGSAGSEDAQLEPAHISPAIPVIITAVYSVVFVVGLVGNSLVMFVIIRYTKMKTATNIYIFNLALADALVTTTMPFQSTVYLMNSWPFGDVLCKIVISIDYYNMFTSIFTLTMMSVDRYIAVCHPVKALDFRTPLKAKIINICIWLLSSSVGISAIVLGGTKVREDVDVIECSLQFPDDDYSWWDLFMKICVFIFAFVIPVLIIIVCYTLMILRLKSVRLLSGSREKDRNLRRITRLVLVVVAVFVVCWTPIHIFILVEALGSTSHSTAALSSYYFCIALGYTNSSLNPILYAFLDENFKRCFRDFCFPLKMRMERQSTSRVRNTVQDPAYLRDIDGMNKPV

## CO[C@@]12[C@@H](C)CC(=O)C[C@@]13CCN(CC1CC1)[C@@H]2Cc1ccc(O)cc13.Cl [CHMMO, 17-cyclopropylmethyl-3-hydroxy-14-methoxy-8βmethylmorphinan-6-one hydrochloride]
[1]
  IC50 κ/ IC50 δ ratio: < 3
  IC50 κ/ IC50 μ ratio: < 3
  δ,κ,μ IC50 being within a factor of: ≤ 3
δ opioid receptor
  IC50: 0.8 nM
[2]; Day 1
  Weight: 82 kg
[2]; Day 1, Table III
  Alk-phos: 145 U/L
[2]; Day 41, 9.0 mg b.i.d.
  Weight: 80 kg
[2]; Day 41, 9.0 mg b.i.d., Table III
  Alk-phos: 126 U/L
[2]; Day 41 vs Day 1
  ALT Δ%: 31%
  AST Δ%: 30%
  Alk-phos Δ%: 6%
  Glucose Δ%: 14%
  LD Δ%: 27%
  Weight Δ%: 4.5%
[2]; [5]
  Chol. Total Δ% (fall): 21%
  LDL-C. Δ% (fall): 7%
  TG Δ% (fall): 42%
[2]; [6]
  FFA Δ% (fall): 22.7%
  HDL-C. Δ% (increase): 16%
  Insulin Δ% (fall): 50%
  LDL/HDL Δ% (improvement): 22%
[2]; [7]
  FFA Δ% (fall): 23%
  HDL-C. Δ% (increase): 20%
  Insulin Δ% (fall): about 50%
  LDL/HDL Δ% (improvement): 23%
[2]; after the first week, 18 mg twice daily, remained essentially at the same level
  Blood glucose: 95 mg/dL
[2]; day 1
  ALT: 29 U/L
  AST: 23 U/L
  CH. T (total cholesterol): 234 mg/dL
  FFA: 0.75 mM/L
  Gluc.: 111 mg/dL
  HDL: 30 mg/dL
  Insulin: 14 μU/ml
  LD: 162 U/L
  LDL: 156 mg/dL
  LDL/HDL: 5.2
  TG: 229 mg/dL
[2]; day 1, Table II (unit not given)
  Alk.-Phos: 145
[2]; day 41
  ALT: 20 U/L
  AST: 16 U/L
  LD: 117 U/L
[2]; [8]
  CH. T (total cholesterol): 185 mg/dL
  HDL: 36 mg/dL
  Insulin: 6 μU/ml
  LDL: 145 mg/dL
  TG: 133 mg/dL
[2]; day 41 (after 5 weeks), 18 mg b.i.d. one week, then 9 mg b.i.d., hydrochloride
  LDL/HDL: 4.0 and 4.03
[2]; day 41 (after 5 weeks), 18 mg b.i.d. one week, then 9 mg b.i.d., listed as CEMMO, hydrochloride
  LDL/HDL: 4.0
[2]; day 41, Table II (unit not given)
  Alk.-Phos: 126
[2]; [9]
  FFA: 0.58 mM/L
  Gluc.: 95 mg/dL
[2]; during the first week, 18 mg twice daily
  drop of blood glucose: 15%
[2]; end of study, after 5 weeks
  FFA: 580 μE/L
[2]; end of the study
  Weight: slight weight loss
[2]; start of study
  FFA: 754 μE/L
κ opioid receptor
  IC50: 0.95 nM
μ opioid receptor
  IC50: 0.5 nM

## C=C1CC[C@@]2(O)[C@H]3Cc4ccc(O)c5c4[C@@]2(CCN3CC2CC2)[C@H]1O5 [Nalmefene, 6-desoxy-6-methylene-naltrexone]
[3]; Day 1
  ALT: 72 U/L
  AST: 31 U/L
  Alk-phos: 70 U/L
  Blood Pressure, diastolic: 100
  Blood Pressure, systolic: 136
  C-Peptide: 4.7 ng/mL
  Chol. Total: 247 mg/dL
  FFA: 0.68 mM/L
  GG-transp: 56 U/L
  Glucose: 138 mg/dL
  HDL-C.: 37 mg/dL
  HgbA1c: 6.0%
  Insulin: 27 μU/ml
  LD: 125 U/L
  LDL-C.: 140 mg/dL
  LDL/HDL: 3.78
  TG: 270 mg/dL
  Weight: 86 kg
[3]; Day 141, 0.5 mg b.i.d.
  ALT: 42 U/L
  AST: 16 U/L
  Alk-phos: 72 U/L
  Blood Pressure, diastolic: 83
  Blood Pressure, systolic: 128
  C-Peptide: 2.9 ng/mL
  Chol. Total: 193 mg/dL
  FFA: 0.41 mM/L
  GG-transp: 32 U/L
  Glucose: 120 mg/dL
  HDL-C.: 40 mg/dL
  HgbA1c: 5.4%
  Insulin: 16 μU/ml
  LD: 120 U/L
  LDL-C.: 118 mg/dL
  LDL/HDL: 2.95
  TG: 175 mg/dL
  Weight: 79 kg
[3]; Day 141 vs Day 1
  ALT Δ%: 42%
  AST Δ%: 48%
  Alk-phos Δ%: 3%
  Blood Pressure reduction, diastolic: 17 pts
  Blood Pressure reduction, systolic: 8 pts
  C-Peptide Δ% (reduction): 38%
  Chol. Total Δ% (reduction): 22%
  FFA Δ% (reduction): 40%
  GG-transp Δ%: 43%
  Glucose Δ% (reduction in fasting blood glucose): 13%
  HDL-C. Δ% (increase): 8%
  HgbA1c Δ% (reduction): 10%
  Insulin Δ%: 43%
  LD Δ%: 4%
  LDL-C. Δ% (reduction): 16%
  LDL/HDL Δ% (improvement): 22%
  TG Δ% (reduction): 35%
  Weight Δ% (reduction): 8%
[4]
  elevated insulin concentrations: reduced
[1]
  δ,κ,μ IC50 being within a factor of: ≤ 10

## O=C1CC[C@@]2(O)[C@H]3Cc4ccc(O)c5c4[C@@]2(CCN3CC2CC2)[C@H]1O5 [Naltrexone]
Body weight
  reduction of body weight: inconsistent results
